US20140357713A1, “ANTIMICROBIAL COMPOUNDS AND METHODS OF USE” (NexMed Holdings, Inc., priority 2012, published 2014)
Structures can show the parent of a compound that is named as a salt. Where two headings read alike, the source gives them in different places.

Assays:
[1] = system: Escherichia coli (ATCC 25922); assay: Minimum inhibitory concentration (MIC) assay, Example 33; format: cell-based; conditions: Escherichia coli
Summary of the method: (§1)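 In CAMHB, 2-fold compound series meet bacteria from fresh isolated colonies, turbidity-adjusted to OD600 0.08-0.13 and diluted 1:100 (2× inoculum). Incubation: 35° C. Endpoint: MIC per CLSI.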

[2] = system: Pseudomonas aeruginosa (ATCC 27853); assay: as above; format: cell-based; conditions: Pseudomonas aeruginosa
Summary of the method: as §1

[3] = system: Candida albicans (ATCC 90029); assay: as above; format: cell-based; conditions: Candida albicans
Summary of the method: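 MIC read per CLSI after incubation at 35° C. Colonies in RPMI 1640 adjusted to OD530 0.08–0.13, diluted 1:50 and 1:20 to twice test density, then added 1:2 to wells holding 2-fold serial drug dilutions in RPMI 1640 (CLSI microdilution).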

pH (Table 1) = format: physicochemical
[4] = Solubility (Sol., Table 1); format: physicochemical
[5] = system: Staphylococcus aureus (ATCC 29213); assay: Time kill study, Example 33 (0 to 5 min); format: cell-based; conditions: 1×MIC
Summary of the method: (§2)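 Read-out: Log10 CFU/mL by colony count on agar after 24 to 48 hrs. Exposure: strain suspension and compound solution at equal volume, CLSI method, samples at 0 min, 30 sec, 1 min and 5 mins diluted in test medium before plating.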

[6] = system: Escherichia coli (ATCC 25922); assay: Time kill study, Example 33 (0 to 5 min); format: cell-based; conditions: 1×MIC
Summary of the method: as §2

[7] = system: Candida albicans (ATCC 90029); assay: Time kill study, Example 33 (0 to 5 min); format: cell-based; conditions: 1×MIC
Summary of the method: as §2

[8] = system: Pseudomonas aeruginosa (ATCC 27853); assay: Time kill study, Example 33 (0 to 5 min); format: cell-based; conditions: 1×MIC
Summary of the method: as §2

[9] = system: Staphulococcus aureus (ATCC 29213); assay: Minimum inhibitory concentration (MIC) assay, Example 33; format: cell-based, Staphylococcus aureus; conditions: Staphylococcus aureus
Summary of the method: as §1

[10] = system: Aspergillus niger (CMCC 98003); assay: as above; format: cell-based; conditions: for MIC: Aspergillus niger; for MIC Aspergillus niger: n = 2
Summary of the method: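 Conidia gently probed from sporulating colonies into RPMI 1640, set to 0.09-0.13 at 530 nm, then diluted 1:50 and mixed 1:2 with 2-fold serially diluted compounds. Following CLSI guidelines, incubation was at 35 °C before the MIC was recorded.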

[11] = system: Aspergillus niger (CMCC 98003); assay: Time kill study, Example 33 (0 to 5 min); format: cell-based; conditions: 1×MIC
Protocol: Thirty compounds were tested for antimicrobial activity using standard procedures and standard strains for both the minimum inhibitory concentration (MIC) assay and a time kill study. Both the MIC assay and the time kill study were performed according to Clinical and Laboratory Standards Institute (CLSI) guidelines. Three bacteria strains, Escherichia coli (ATCC 25922), Pseudomonas aeruginosa (ATCC 27853), Staphulococcus aureus (ATCC 29213), and two fungus strains, Candida albicans (ATCC 90029) and Aspergillus niger (CMCC 98003), were used in the experiments.
The viable counts in Log10 CFU/mL at each time point were recorded.
Time kill studies. Strain suspensions were prepared as described above for the MIC test, and strain suspensions and compound solutions were mixed in the same volume. Samples were removed at specified times including 0 min, 30 sec, 1 min and 5 mins, were diluted in the test medium and streaked on agar. Colonies were counted after 24 to 48 hrs of incubation.
The MIC values for thirty compounds against Escherichia coli, Pseudomonas aeruginosa, Staphulococcus aureus, Candida albicans, and Aspergillus niger were recorded and are presented in Table 3 and Table 4.

[12] = ATCC25922, Table 19 summary of Example 33 and Example 35
[13] = ATCC25922, read-out: MIC E. coli, n = 1
[14] = ATCC25922, read-out: MIC E. coli, n = 2
[15] = ATCC27853, read-out: MIC P. aeruginosa, n = 1
[16] = ATCC27853, read-out: MIC P. aeruginosa, n = 2
[17] = ATCC90029, read-out: MIC Candida albicans, n = 1
[18] = ATCC90029, read-out: MIC Candida albicans, n = 2
[19] = ATCC29213, read-out: MIC S. aureus, n = 1
[20] = ATCC29213, read-out: MIC S. aureus, n = 2
[21] = CMCC98003, read-out: MIC Aspergillus niger

Row | SMILES | melting point | MIC [1, 12] | MIC [1, 13] | MIC [1, 14] | MIC ([2]; ATCC27853, Table 19 summary) | MIC [2, 15] | MIC [2, 16] | MIC ([3]; ATCC90029, Table 19 summary) | MIC [3, 17] | MIC [3, 18] | pH (pH (Table 1)) | Sol. [4] | Viable counts, Staphylococcus aureus time kill study ([5]; 0.5 min) | Viable counts, Staphylococcus aureus time kill study ([5]; 1 min) | Viable counts, Staphylococcus aureus time kill study ([5]; 5 min) | Viable counts, Staphylococcus aureus time kill study ([5]; time 0) | Viable counts, Escherichia coli time kill study ([6]; 0.5 min) | Viable counts, Escherichia coli time kill study ([6]; 1 min) | Viable counts, Escherichia coli time kill study ([6]; 5 min) | Viable counts, Escherichia coli time kill study ([6]; time 0) | further results
1 | CCCCCCCCCCCCOC(=O)C(C)N(C)C (stereo not drawn) (as salt: salt) [Nex-46, Dodecyl 2-(dimethylamino)propanoate 2-hydroxyethanesulfonate] | 58 to 63 °C |  |  |  |  |  |  |  |  |  |  |  |  |  |  |  |  |  |  |  | 
2 | CCCCCCCCCCCCOC(=O)C(C)N(C)C (stereo not drawn) (as salt: methanesulfonate) [Nex-22, Dodecyl 2-(dimethylamino)propanoate methanesulfonate] | 66 to 72 °C |  |  |  |  |  |  |  |  |  |  |  |  |  |  |  |  |  |  |  | 
3 | CCCCCCCCCCCCOC(=O)C(C)N(C)C (stereo not drawn) (as salt: maleate) [Nex-20, Dodecyl 2-(dimethylamino)propanoate maleate] | 65 to 70 °C |  |  |  |  |  |  |  |  |  |  |  |  |  |  |  |  |  |  |  | 
4 | CCCCCCCCCCCC(C)OC(=O)C(C)N(C)C (stereo not drawn) (as salt: hydrochloride) [Nex-64, Tridecan-2-yl 2-(dimethylamino)propanoate hydrochloride] | 88 to 94 °C |  |  |  |  |  |  |  |  |  |  |  |  |  |  |  |  |  |  |  | 
5 | CCCCCCCCOC(=O)C(C)N(C)C (stereo not drawn) [Nex-70, Octyl 2-(dimethylamino)propanoate hydrochloride] |  | 780 µg/mL | 780 µg/mL | 780 µg/mL | 3130 µg/mL | 3130 µg/mL | 3130 µg/mL | 780 µg/mL | 780 µg/mL | 780 µg/mL | 0.88 | 134% | 6.42 Log10 CFU/mL | 6.37 Log10 CFU/mL | 6.22 Log10 CFU/mL | 6.37 Log10 CFU/mL | <4.0 Log10 CFU/mL | <3.70 Log10 CFU/mL | <3.52 Log10 CFU/mL | 5.0 Log10 CFU/mL | Viable counts, Candida albicans time kill study ([7]; 0.5 min): 5.53 Log10 CFU/mL; Viable counts, Candida albicans time kill study ([7]; 1 min): 5.51 Log10 CFU/mL; Viable counts, Candida albicans time kill study ([7]; 5 min): 5.49 Log10 CFU/mL; Viable counts, Candida albicans time kill study ([7]; time 0): 5.55 Log10 CFU/mL; Viable counts, Pseudomonas aeruginosa time kill study ([8]; 0.5 min): <4.0 Log10 CFU/mL; Viable counts, Pseudomonas aeruginosa time kill study ([8]; 1 min): <3.70 Log10 CFU/mL; Viable counts, Pseudomonas aeruginosa time kill study ([8]; 5 min): <3.52 Log10 CFU/mL; Viable counts, Pseudomonas aeruginosa time kill study ([8]; time 0): 5.62 Log10 CFU/mL; MIC ([9]; ATCC29213, Table 19 summary): 3130 µg/mL; MIC [9, 19]: 3130 µg/mL; MIC [9, 20]: 3130 µg/mL; MIC ([10]; CMCC98003): 12500 µg/mL; MIC [10, 21]: 12500 µg/mL; MIC Aspergillus niger [10]: 12.5 mg/mL
6 | CCCCCCCCCCCCOC(=O)CN(C)C [Nex-52, Dodecyl 2-(dimethylamino)acetate hydrochloride] |  | 1560 µg/mL | 1560 µg/mL | 1560 µg/mL | 6250 µg/mL | 6250 µg/mL | 6250 µg/mL | 50 µg/mL | 50 µg/mL | 50 µg/mL | 3.30 | 49% | 6.27 Log10 CFU/mL | 6.12 Log10 CFU/mL | 6.13 Log10 CFU/mL | 6.26 Log10 CFU/mL | 6.12 Log10 CFU/mL | 5.86 Log10 CFU/mL | 5.24 Log10 CFU/mL | 5.95 Log10 CFU/mL | Viable counts, Aspergillus niger time kill study ([11]; 0.5 min): 5.28 Log10 CFU/mL; Viable counts, Aspergillus niger time kill study ([11]; 1 min): 5.28 Log10 CFU/mL; Viable counts, Aspergillus niger time kill study ([11]; 5 min): 4.95 Log10 CFU/mL; Viable counts, Aspergillus niger time kill study ([11]; time 0): 5.30 Log10 CFU/mL; Viable counts, Candida albicans time kill study ([7]; 0.5 min): 5.19 Log10 CFU/mL; Viable counts, Candida albicans time kill study ([7]; 1 min): 5.17 Log10 CFU/mL; Viable counts, Candida albicans time kill study ([7]; 5 min): 5.23 Log10 CFU/mL; Viable counts, Candida albicans time kill study ([7]; time 0): 5.24 Log10 CFU/mL; Viable counts, Pseudomonas aeruginosa time kill study ([8]; 0.5 min): 4.7 Log10 CFU/mL; Viable counts, Pseudomonas aeruginosa time kill study ([8]; 1 min): 4 Log10 CFU/mL; Viable counts, Pseudomonas aeruginosa time kill study ([8]; 5 min): <3.52 Log10 CFU/mL; Viable counts, Pseudomonas aeruginosa time kill study ([8]; time 0): 5.56 Log10 CFU/mL; MIC ([9]; ATCC29213, Table 19 summary): 200 µg/mL; MIC [9, 19]: 200 µg/mL; MIC [9, 20]: 100 µg/mL; MIC ([10]; CMCC98003): 3130 µg/mL; MIC [10, 21]: 3130 µg/mL; MIC Aspergillus niger [10]: 3.13 mg/mL
7 | CCCCCCCCCCOC(=O)C(C)N(C)C (stereo not drawn) [Nex-68, Decyl 2-(dimethylamino)propanoate hydrochloride] |  | 780 µg/mL | 780 µg/mL | 1560 µg/mL | 3130 µg/mL | 3130 µg/mL | 3130 µg/mL | 390 µg/mL | 390 µg/mL | 200 µg/mL | 0.87 | 97% | 5.82 Log10 CFU/mL | 5.88 Log10 CFU/mL | 5.57 Log10 CFU/mL | 6.39 Log10 CFU/mL | 5.53 Log10 CFU/mL | 4.3 Log10 CFU/mL | <3.52 Log10 CFU/mL | 5.88 Log10 CFU/mL | Viable counts, Aspergillus niger time kill study ([11]; 0.5 min): 5.25 Log10 CFU/mL; Viable counts, Aspergillus niger time kill study ([11]; 1 min): 5.25 Log10 CFU/mL; Viable counts, Aspergillus niger time kill study ([11]; 5 min): 5.25 Log10 CFU/mL; Viable counts, Aspergillus niger time kill study ([11]; time 0): 5.25 Log10 CFU/mL; Viable counts, Candida albicans time kill study ([7]; 0.5 min): 5.35 Log10 CFU/mL; Viable counts, Candida albicans time kill study ([7]; 1 min): 5.15 Log10 CFU/mL; Viable counts, Candida albicans time kill study ([7]; 5 min): 5.13 Log10 CFU/mL; Viable counts, Candida albicans time kill study ([7]; time 0): 5.47 Log10 CFU/mL; Viable counts, Pseudomonas aeruginosa time kill study ([8]; 0.5 min): 5.18 Log10 CFU/mL; Viable counts, Pseudomonas aeruginosa time kill study ([8]; 1 min): 4.88 Log10 CFU/mL; Viable counts, Pseudomonas aeruginosa time kill study ([8]; 5 min): 4.87 Log10 CFU/mL; Viable counts, Pseudomonas aeruginosa time kill study ([8]; time 0): 5.78 Log10 CFU/mL; MIC ([9]; ATCC29213, Table 19 summary): 3130 µg/mL; MIC [9, 19]: 3130 µg/mL; MIC [9, 20]: 3130 µg/mL; MIC ([10]; CMCC98003): 3130 µg/mL; MIC [10, 21]: 3130 µg/mL; MIC Aspergillus niger [10]: 3.13 mg/mL
